Measurements published in ChEMBL document CHEMBL1131405, “Novel bisphosphonate inhibitors of phosphoglycerate kinase” (Bioorg Med Chem Lett, 1998).

What was measured:
[1] = Dissociation constant (pKa3); assay type: physicochemical; conditions: read-out: pKa3
[2] = Dissociation constant (pKa4); assay type: physicochemical; conditions: read-out: pKa4

SMILES	pKa [1]	pKa [2]
O=P(O)(O)Cc1cccc(CP(=O)(O)O)c1	7.11	7.71
O=P(O)(O)C(F)c1cccc(C(F)P(=O)(O)O)n1 (stereo unspecified)	5.18	5.3
O=P(O)(O)Cc1cccc(CP(=O)(O)O)n1	6.7	8.49
O=P(O)(O)Cc1cccc(C(O)P(=O)(O)O)c1 (stereo unspecified)	6.98	7.29
Cc1cc(C)c(CP(=O)(O)O)cc1CP(=O)(O)O	7.24	7.78
O=P(O)(O)C(F)(F)c1cccc(C(F)(F)P(=O)(O)O)n1	5.18	5.3
O=P(O)(O)Cc1ccccc1CP(=O)(O)O	7.1	8.53
O=P(O)(O)Cc1cccc(P(=O)(O)O)c1	6.47	7.61
Cc1cc(C)c(CP(=O)(O)O)c(C)c1CP(=O)(O)O	7.4	8.16
O=P(O)(O)C(F)c1ccc(C(F)P(=O)(O)O)cc1 (stereo unspecified)	6.02	6.37
O=P(O)(O)c1cccc(C(F)P(=O)(O)O)c1 (stereo unspecified)	5.8	6.99
O=P(O)(O)c1cccc(C(O)P(=O)(O)O)c1 (stereo unspecified)	6.55	7.46
Cc1cc(C)c(C(F)(F)P(=O)(O)O)cc1C(F)(F)P(=O)(O)O	5.33	5.92
O=P(O)(O)C(O)c1cccc(C(O)P(=O)(O)O)c1 (stereo unspecified)	6.78	7.23
O=P(O)(O)Cc1ccc(C(F)P(=O)(O)O)cc1 (stereo unspecified)	6.3	7.72
O=P(O)(O)Cc1ccc(C(F)(F)P(=O)(O)O)cc1	5.27	6.63
O=P(O)(O)c1cccc(C(F)(F)P(=O)(O)O)c1	5.61	6.9
C=C(CP(=O)(O)O)CP(=O)(O)O	6.45	7.45
O=P(O)(O)C(F)c1cccc(C(F)P(=O)(O)O)c1 (stereo unspecified)	6.01	6.37
O=P(O)(O)C(F)(F)c1ccc(C(F)(F)P(=O)(O)O)cc1	4.82	5.6
O=P(O)(O)C(O)c1cccc(C(O)P(=O)(O)O)n1 (stereo unspecified)	6.57	7.58
O=P(O)(O)Cc1ccc(CP(=O)(O)O)cc1	7.03	7.49
O=P(O)(O)Cc1cccc(C(F)(F)P(=O)(O)O)c1	5.04	5.84
